Source: patent US12150981B2, “Chimeric antigen receptor-expressing T cells as anti-cancer therapeutics” (Purdue Research Foundation, priority 2012, dated 2024)

Assays:
[1] = test system: anti-FITC scFv in CAR4-1BBZ on transduced T cells; test: Binding of FITC-Folate conjugates to CAR4-1BBZ transduced T cells, confocal microscopy; design: species or system mouse
Procedure: To examine the ability of the transduced T cells containing CAR4-1BBZ to bind the FITC-Folate conjugates, binding assays with the FITC-Folate conjugate and the FITC-(PEG)12-Folate conjugate were performed. Since the excitation wavelength of FITC in the FITC-Folate conjugates overlapped with copGFP in CAR4-1BB transduced T cells, it was difficult to distinguish between FITC binding and copGFP expression. Therefore, an anti-Folate Acid (FA) monoclonal antibody and a fluorephore (excitation 640 nm)-labeled anti-mouse IgG antibody were utilized.
First, the transduced T cells were incubated with FITC-Folate or FITC-(PEG)12-Folate conjugates at room temperature for 1 hour. After washing with 1×PBS, transduced T cells were incubated with anti-FA monoclonal antibody (1:15 dilution) for 1 hour. After another washing with 1×PBS, transduced T cells further were incubated with fluorophore (excitation 640 nm) labeled anti-mouse IgG antibody (1:50 dilution). Finally, unbound antibodies were washed away and a confocal microscope was used to confirm the FITC-Folate and FITC-(PEG)12-Folate conjugates binding ability. All data was analyzed by Olympus Fluoview software. […] Simultaneously, binding of FITC-Folate and FITC-(PEG)12-Folate conjugates (arrows) were also detected on the CAR4-1BBZ transduced T cells.

[2] = test system: folate receptor (FR) on L1210A cells; test: Binding of FITC-Folate conjugates to FR positive L1210A cancer cells, fluorescence/confocal microscopy; design: species or system mouse
Procedure: (§1) The ability of the FITC-Folate and FITC-(PEG)12-Folate conjugates to bind folate receptor (FR) positive cancer cells was next investigated. FR positive cells lines L1210A (Mouse lymphocytic leukemia) and KB (Mouth epidermal carcinoma), which are FR positive cell lines, were used to test the binding affinity of the FITC-Folate conjugates. Briefly, 3-4×10^4 cancer cells were prepared to perform binding affinity assays with FITC-Folate and FITC-(PEG)12-Folate conjugates. With two different concentrations (e.g. 20 nM, 70 nM), the two FITC-Folate conjugates were incubated with cancer cells at room temperature for 1 hour. Since both FITC-Folate conjugates have fluorescence, the binding ability of FITC-Folate conjugates to cancer cells can be detected by florescence microscopy. After two washes with 1× phosphate buffered saline (PBS) to remove all unbound compound, the cancer cells were observed by confocal microscope. In order to specify whether FITC-Folate conjugates bind to cancer cells via FR on the surface of cancer cells, Folate Acid was also incubated with cancer cells as a competition compound. […] As shown in competition panel, addition of 50× excess folate acid blocked FITC-Folate binding with these cancer cells, which indicates the specific binding is between folate acid and FR on cell surface.

[3] = test system: FR+ KB cells; test: 51Chromium release cytotoxicity assay of anti-FITC CAR-expressing T cells against KB cells; assay type: cell-based, human; conditions: 70 nM conjugate, effector:target 20:1, 4-10 hours
[4] = target: T1, folate receptor (FR) on KB cells (Homo sapiens, UniProt P15328); test: Binding of FITC-Folate conjugates to FR positive KB cancer cells, fluorescence/confocal microscopy
T1 construct: endogenous in cells; host or cells: KB cells
Procedure: as §1

[5] = test system: FR+ L1210A cells; test: 51Chromium release cytotoxicity assay of anti-FITC CAR-expressing T cells against L1210A cells; assay type: cell-based, mouse; conditions: 70 nM conjugate, effector:target 20:1, 4-10 hours
Procedure: In order to explore whether CAR-expressing T cells can kill cancer cells, ^51Chromium release assays were conducted. In this assay, cancer cells are labeled with ^51Cr. When cancer cells are lysed, ^51Cr would be released from cancer cells to supernatant. By measuring ^51Cr in supernatant, the number of cancer cells killed can be determined.
First, target cancer cells L1210A were incubated in 50 μL growth medium containing 50 μCi ^51Chromium to get labeled. After washing with PBS×3, L1210A cells were resuspended and incubated at 37° C. for 1 hour in the growth medium containing 70 nM FITC-Folate conjugate or FITC-(PEG)12-Folate conjugate. After washing away excess FITC conjugates, 5×10^3 target cancer cells were added in each well of 96-well plates. […] After incubation for 4-10 hours, 20 μL aliquots of cell-free supernatant were harvested and ^51Cr in the supernatants was measured with a scintillation counter or a γ-counter.
Percent specific cytolysis was calculated using following formula: % cytolysis=(Experimental ^51Cr release−control ^51Cr release)/(Maximum ^51Cr release−control ^51Cr release)×100
Control wells contained only target cancer cells, effector T cells were never added in these wells. Maximum ^51Cr release was determined by measuring ^51Cr release from labeled target cells treated with 2.5% SDS to lyse all cells.

[6] = test system: PSMA-positive human prostate cancer cells; conditions: DUPA-(99m)Tc, ref [8]; cited from earlier work
[7] = 20 nM, 70 nM, room temperature 1 hour

T1 sequence (P15328 25-234): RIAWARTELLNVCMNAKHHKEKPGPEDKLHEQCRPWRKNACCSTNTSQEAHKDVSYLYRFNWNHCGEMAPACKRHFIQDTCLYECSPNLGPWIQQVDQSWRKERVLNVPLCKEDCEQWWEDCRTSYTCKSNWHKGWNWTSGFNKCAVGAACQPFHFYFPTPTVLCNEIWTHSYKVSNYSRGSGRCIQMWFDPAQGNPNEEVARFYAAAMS

binding to KB cells via FR [4, 7] | binding to KB cells in the presence of competitor ([4]; 50× excess folate acid) | cellular localization in KB cells (internalization) ([4]; FIG. 3A, 3C) | SMILES | binding to non-transduced T cells ([1]; non-transduced T cells, same protocol) | binding to anti-FITC in CAR4-1BBZ transduced T cells ([1]; room temperature 1 hour, detected with anti-FA antibody and labeled anti-mouse IgG) | binding to L1210A cells via FR [2, 7] | binding to L1210A cells in the presence of competitor ([2]; 50× excess folate acid) | cancer cell cytolysis by CAR-expressing T cells in the presence of conjugate [3] [%] | cancer cell cytolysis by CAR-expressing T cells in the presence of conjugate [5] [%] | Kd [6] [nM]
can bind | blocked | internalized into KB cell cytoplasm | Nc1nc2ncc(CNc3ccc(C(=O)N[C@@H](CCC(=O)NCCNC(=S)Nc4ccc(-c5c6ccc(=O)cc-6oc6cc(O)ccc56)c(C(=O)O)c4)C(=O)O)cc3)nc2c(=O)[nH]1 (single isomer, unassigned) [FITC-Folate] | not to non-transduced T cells | successfully bound | can bind | blocked | ~18 | ~29 | 
 |  |  | O=C(O)CCC(NC(=O)NC(CCC(=O)O)C(=O)O)C(=O)O (stereo not shown) [DUPA, 2-[3-(1,3-dicarboxypropyl)ureido] pentanedioic acid] |  |  |  |  |  |  | 14
